The NIST ThermoML archive (doi:10.1021/acs.jced.6b00750)

Assay: xn = mol fraction of the nth substance listed
Conditions: Liquid; for mass density: Vibrating wire densiometer; for viscosity: Vibrating wire viscometry

C [methane] + CCCCCCCCCCCCCCCC
Conditions | mass density [kg/m3] | viscosity [mPa·s]
298.15 K, 10230 kPa, x1 = 0.1013 | 781.6 | 3.304
298.15 K, 19830 kPa, x1 = 0.1013 | 786.5 | 3.687
298.21 K, 20070 kPa, x1 = 0.2976 | 780.7 | 3.712
298.21 K, 30320 kPa, x1 = 0.2976 | 786 | 4.196
298.22 K, 10040 kPa, x1 = 0.2021 | 775.4 | 3.308
298.22 K, 19950 kPa, x1 = 0.2021 | 781.3 | 3.742
298.33 K, 13910 kPa, x1 = 0.3979 | 781.1 | 3.321
298.33 K, 20030 kPa, x1 = 0.3979 | 784.6 | 3.548
298.33 K, 30040 kPa, x1 = 0.3979 | 791 | 3.938
323.22 K, 10080 kPa, x1 = 0.1013 | 765.4 | 1.993
323.22 K, 20170 kPa, x1 = 0.1013 | 771.2 | 2.205
323.22 K, 40020 kPa, x1 = 0.1013 | 783.4 | 2.69
323.22 K, 60000 kPa, x1 = 0.1013 | 791.6 | 3.255
323.22 K, 78560 kPa, x1 = 0.1013 | 801.7 | 3.927
323.23 K, 20400 kPa, x1 = 0.2976 | 769.6 | 2.151
323.23 K, 21720 kPa, x1 = 0.2976 | 770.4 | 2.147
323.23 K, 21740 kPa, x1 = 0.2976 | 770.3 | 2.146
323.23 K, 40220 kPa, x1 = 0.2976 | 781.5 | 2.597
323.23 K, 60040 kPa, x1 = 0.2976 | 791.5 | 3.162
323.23 K, 79910 kPa, x1 = 0.2976 | 800.3 | 3.859
323.26 K, 14530 kPa, x1 = 0.3979 | 763.7 | 1.887
323.26 K, 14750 kPa, x1 = 0.3979 | 763.9 | 1.918
323.26 K, 20040 kPa, x1 = 0.3979 | 766.5 | 2.058
323.26 K, 40050 kPa, x1 = 0.3979 | 778.7 | 2.56
323.32 K, 10010 kPa, x1 = 0.2021 | 756.6 | 1.901
323.32 K, 20100 kPa, x1 = 0.2021 | 763.2 | 2.147
323.32 K, 39150 kPa, x1 = 0.2021 | 775.8 | 2.576
373.2 K, 10050 kPa, x1 = 0.2021 | 721.1 | 0.926
373.2 K, 12610 kPa, x1 = 0.2021 | 723.4 | 0.951
373.2 K, 20020 kPa, x1 = 0.2021 | 729.5 | 1.037
373.2 K, 40260 kPa, x1 = 0.2021 | 744.4 | 1.27
373.2 K, 60350 kPa, x1 = 0.2021 | 757.1 | 1.521
373.2 K, 65050 kPa, x1 = 0.2021 | 759.8 | 1.586
373.26 K, 10000 kPa, x1 = 0.1013 | 732.3 | 0.967
373.26 K, 20170 kPa, x1 = 0.1013 | 740.6 | 1.112
373.26 K, 40110 kPa, x1 = 0.1013 | 754.5 | 1.334
373.26 K, 60080 kPa, x1 = 0.1013 | 767.4 | 1.571
373.26 K, 80130 kPa, x1 = 0.1013 | 777.3 | 1.897
373.41 K, 24090 kPa, x1 = 0.2976 | 738.5 | 1.04
373.41 K, 24100 kPa, x1 = 0.2976 | 738.2 | 1.038
373.41 K, 40140 kPa, x1 = 0.2976 | 749.9 | 1.222
373.41 K, 60030 kPa, x1 = 0.2976 | 762.2 | 1.465
373.41 K, 80100 kPa, x1 = 0.2976 | 773.7 | 1.749
373.47 K, 16680 kPa, x1 = 0.3979 | 730.1 | 0.921
373.47 K, 16740 kPa, x1 = 0.3979 | 729.9 | 0.942
